Earlier results, collected in patent publication US20030130180A1, “Utilization of an aminopeptidase inhibitor” (priority 2000, published 2003).

Test system: tumor cells
Settings: in vitro, matrigel analytic system; cited from earlier work

In the case of `CCCCC[C@H](CC(=O)NO)C(=O)N[C@H](C(=O)N1CCC[C@H]1CO)C(C)C` [actinonin], the tumor cell invasion is given as “do not have an effect”.
